Results: patent US6207399A, “Methods of determining endogenous thrombin potential (ETP) and thrombin substrates for use in said methods” (Hemker; Hendrik Coenraad, priority 1995, dated 2001)
Peptide text beside a SMILES is read from it. * marks the point of attachment. pNA = O=[N+]([O-])c1ccc(N*)cc1

Experiments:
human α-thrombin = target: T1, human α-thrombin (Homo sapiens, UniProt P00734); assay: Kinetics of hydrolysis of substrates by human α-thrombin in buffer A at 37° C. (Example 2, Table 1); format: biochemical
T1 construct: Pure human α-thrombin; gift of Dr. T. Lindhout (University of Limburg, Maastricht)
How it was run: (§1)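 p-Nitroaniline release was followed at 405 nm (dual wavelength 405-546 nm) in buffer A at 37° C, with substrate at 1 to 2000 μM (at least six levels) preincubated 5 min before enzyme at 0.5 to 100 nM. Km and kcat came from initial velocities fitted to Michaelis-Menten by linear regression, from one or two experiments.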

factor Xa [1] = target: T2, factor Xa (Homo sapiens, UniProt P00742); assay: Kinetic parameters of hydrolysis of the substrates by factor Xa in buffer A at 37° C. (Example 4, Table 3); format: biochemical; parameters: key to Factor Xa kcat: NH: no hydrolysis; settings: buffer A, 37° C., 50 nM factor Xa
T2 construct: human factor Xa samples; gift of Dr. T. Lindhout (University of Limburg, Maastricht)
How it was run: (§2)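 p-Nitroaniline release followed at 405 nm in buffer A at 37 °C, with at least six substrate levels of 200–2000 μM. Thrombin at 0.5–50 nM, factor Xa at 50 nM; Km and kcat from initial velocities by linear regression on Michaelis-Menten.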

factor Xa [2] = target: T2, factor Xa; assay: Kinetics of hydrolysis of substrates by human factor Xa in buffer A at 37° C. (Example 2, Table 2); format: biochemical; parameters: key to kcat: NH: not hydrolyzed by factor Xa
How it was run: as §1

[3] = system: thrombin generation in tissue factor triggered plasma; assay: Manual determination of thrombin generation in plasma (subsampling method) and calculated prothrombinase activity; format: biochemical, human
Protocol: Manual determination of thrombin generation in plasma: Extrinsic pathway: To 480 μL defibrinated plasma were added: 172 μL buffer A which contains the substrate at concentrations between 0 to 2000 μM and 20 μL of a 54 μM phospholipid solution (final concentration: 1.5 μM). After incubation of 4 min at 37° C., 24 μL tissue factor (undiluted) was added. Thrombin formation started at zero time by adding 24 μL of a 0.5 M CaCl2 solution (final concentration: 16.67 mM). At regular time intervals of 12 s samples of 10 μL were subsampled as described above. From the amidolytic activities thus obtained, the thrombin generation curve can be drawn. […] Intrinsic pathway: To 480 μL defibrinated plasma were added: 168 μL buffer A which contains the substrate at concentrations between 0 to 1000 μM and 48 μL Actin FS (undiluted). This mixture was intensively mixed and incubated for 4 min at 37° C. Thrombin generation was started at zero time by adding 24 μL of a 0.5 M CaCl2 solution (final concentration: 16.67 mM).
Influence of the substrate on the prothrombinase-complex: With the obtained decay constants and from the curves obtained by the subsampling method we calculated the course of prothrombin conversion and the course of prothrombinase concentration.
Manual determination of thrombin generation in plasma: Extrinsic pathway: To 480 μL defibrinated plasma were added: 172 μL buffer A which contained the substrate at concentrations between 0 to 2000 μM and 20 μL of a 54 μM phospholipid solution (final concentration: 1.5 μM). After incubation for 4 min at 37° C., 24 μL tissue factor (undiluted) was added. Thrombin formation started at zero time by adding 24 μL of a 0.5 M CaCl2 solution (final concentration: 16.67 mM). At regular time intervals of 12 s samples of 10 μL were subsampled as described above. From the amidolytic activities thus obtained, the thrombin generation curve can be drawn.
Influence of the substrate on the prothrombinase-compzex: With the obtained decay constants and from the curves obtained by the subsampling method we calculated the course of prothrombin conversion and the course of prothrombinase concentration.

thrombin = thrombin (Homo sapiens, UniProt P00734); assay: Kinetic parameters of hydrolysis of the substrates by thrombin in buffer A at 37° C. (Example 4, Table 3); format: biochemical; parameters: Pure human α-thrombin; gift of Dr. T. Lindhout (University of Limburg, Maastricht); settings: buffer A, 37° C.
How it was run: as §2

T2 sequence (P00742 41-179 limits assumed): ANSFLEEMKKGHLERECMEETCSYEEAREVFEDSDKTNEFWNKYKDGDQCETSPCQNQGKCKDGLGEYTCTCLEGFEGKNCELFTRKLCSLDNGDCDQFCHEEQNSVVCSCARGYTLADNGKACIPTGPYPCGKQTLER
T2 sequence (P00742 235-488 limits assumed): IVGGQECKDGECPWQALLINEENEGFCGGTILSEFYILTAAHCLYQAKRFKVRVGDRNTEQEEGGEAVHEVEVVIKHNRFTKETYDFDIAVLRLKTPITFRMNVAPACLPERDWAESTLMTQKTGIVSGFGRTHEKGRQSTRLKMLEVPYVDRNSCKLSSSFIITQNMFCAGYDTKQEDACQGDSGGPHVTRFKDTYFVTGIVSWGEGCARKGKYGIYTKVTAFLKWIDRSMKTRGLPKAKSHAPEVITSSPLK

## CC(C)[C@H](N)C(=O)N[C@@H](CCCNC(=N)N)C(=O)Nc1ccc([N+](=O)[O-])cc1.Cl.Cl [2HCl.H-Val-Arg-pNA] (H-Val-Arg-pNA)
Human α-thrombin
  Km: 1.24 mM
  kcat: 0.23 s⁻¹
  kcat /Km: 186 M/s
Factor Xa [1]
  Factor Xa kcat: NH
Factor Xa [2]
  kcat: NH
[3]; [S] 200 μM in plasma
  k2,M : k2 determined by the subsampling method: 0.234 min⁻¹
[3]; [S] 500 μM in plasma
  k2,M : k2 determined by the subsampling method: 0.207 min⁻¹
[3]; [S] 1000 μM in plasma
  k2,M : k2 determined by the subsampling method: 0.199 min⁻¹
[3]; calculated from decay constants and manual thrombin generation curves
  influence on the prothrombinase complex / coagulation cascade: clearly decreases its concentration
thrombin
  Km: 1.24 mM
  Thrombin kcat: 0.23 s⁻¹
  Thrombin kcat /Km: 186 M/s
